{"source": "paper PMC10182713", "about": "(South African Journal of Botany, 2023)", "key": {"M. bovis (ATCC 27290)": {"test_system": "M. bovis (ATCC 27290)", "assay": "microbe, parasite or virus in culture", "type": "cell-based, Mycobacterium bovis", "settings": "for MIC: Mycobacterium tuberculosis variant bovis, ATCC27290, read-out: MIC M. bovis"}, "[1]": {"test_system": "pathogenic and non-pathogenic Mycobacterium strains", "type": "cell-based"}, "[2]": {"test_system": "M. tuberculosis H37RV (ATCC 27294)", "assay": "microbe, parasite or virus in culture", "type": "cell-based, Mycobacterium tuberculosis", "settings": "for MIC: Mycobacterium tuberculosis, ATCC27294|H37RV, read-out: MIC M. tb H37Rv"}, "[3]": {"test_system": "Mycobacterium smegmatis (ATCC 1441)", "assay": "microbe, parasite or virus in culture", "type": "cell-based", "settings": "for MIC: Mycolicibacterium smegmatis, ATCC1441, 24 h, read-out: MIC M. smegmatis"}, "Caco-2 cells": {"test_system": "Caco-2 cells", "type": "cell-based, human"}, "HepG2 liver cells": {"test_system": "HepG2 liver cells", "settings": "human"}, "Vero monkey kidney cells": {"test_system": "Vero monkey kidney cells", "type": "cell-based"}, "M. fortuitum (ATCC 6841)": {"test_system": "M. fortuitum (ATCC 6841)", "assay": "microbe, parasite or virus in culture", "type": "cell-based, Mycobacterium fortuitum", "settings": "Mycolicibacterium fortuitum, ATCC6841, 24 h, read-out: MIC M. fortuitum"}, "C3A cells": {"test_system": "C3A cells", "type": "cell-based"}, "M. aurum (NCTC 10437)": {"test_system": "M. aurum (NCTC 10437)", "assay": "microbe, parasite or virus in culture", "type": "cell-based, Mycobacterium aurum", "settings": "Mycolicibacterium aurum, NCTC10437, read-out: MIC M. aurum"}, "in vitro": {"assay": "in vitro", "settings": "human, Cell viability of HepG2 cells treated with the toxicant alone"}, "Mycobacterium": {"test_system": "Mycobacterium", "settings": "antimycobacterial activity; ref Boonphong et al., 2007; cited from earlier work"}, "HepG2 cells": {"test_system": "HepG2 cells", "settings": "tert-butyl hyperoxide induced-toxicity on HepG2 cells; ref Kim et al. (2011); cited from earlier work"}}}
{"molecule": "4′-methoxykaempferol", "values": [{"measurement": "MIC M. bovis", "setting": "M. bovis (ATCC 27290)", "value": 125, "unit": "µg/mL"}, {"measurement": "Antimycobacterial activity in words", "setting": "[1]", "value": "weak"}, {"measurement": "MIC M. tb H37Rv", "setting": "[2]", "value": 125, "unit": "µg/mL"}, {"measurement": "MIC M. smegmatis", "setting": "[3]", "value": 250, "unit": "µg/mL"}]}
{"molecule": "COc1ccc(C2CC(=O)c3c(OC)cc(OC)cc3O2)cc1", "note": "(stereo not drawn) [5,7,4′-trimethoxy flavanone]", "values": [{"measurement": "Selectivity index LC50/MIC M. bovis", "setting": "Caco-2 cells", "value": 3.175}, {"measurement": "Selectivity index LC50/MIC M. fortuitum", "setting": "Caco-2 cells", "value": 3.175}, {"measurement": "Selectivity index LC50/MIC M. smegmatis", "setting": "Caco-2 cells", "value": 3.175}, {"measurement": "Selectivity index LC50/MIC M. tb H37RV", "setting": "Caco-2 cells", "value": 6.452}, {"measurement": "MIC", "setting": "M. bovis (ATCC 27290)", "value": 63, "unit": "µg/mL"}, {"measurement": "Percentage hepatoprotective activity (cell viability)", "setting": "HepG2 liver cells", "value": "85.674±0.0618", "unit": "%"}, {"measurement": "Antimycobacterial activity in words", "setting": "[1]", "value": "good activity"}, {"measurement": "Selectivity index LC50/MIC M. bovis", "setting": "Vero monkey kidney cells", "value": 3.206}, {"measurement": "Selectivity index LC50/MIC M. fortuitum", "setting": "Vero monkey kidney cells", "value": 3.206}, {"measurement": "Selectivity index LC50/MIC M. smegmatis", "setting": "Vero monkey kidney cells", "value": 3.206}, {"measurement": "MIC", "setting": "[2]", "value": 31, "unit": "µg/mL"}, {"measurement": "MIC", "setting": "M. fortuitum (ATCC 6841)", "value": 63, "unit": "µg/mL"}, {"measurement": "Selectivity index LC50/MIC M. bovis", "setting": "C3A cells", "value": 3.174}, {"measurement": "Selectivity index LC50/MIC M. fortuitum", "setting": "C3A cells", "value": 3.174}, {"measurement": "Selectivity index LC50/MIC M. smegmatis", "setting": "C3A cells", "value": 3.174}, {"measurement": "Selectivity index LC50/MIC M. tb H37RV", "setting": "C3A cells", "value": 6.452}, {"measurement": "MIC", "setting": "[3]", "value": 63, "unit": "µg/mL"}]}
{"molecule": "COc1ccc(-c2oc3cc(OC)cc(O)c3c(=O)c2OC)cc1", "note": "[5‑hydroxy-3,7,4′-trimethoxyflavone]", "values": [{"measurement": "Selectivity index LC50/MIC M. bovis", "setting": "Caco-2 cells", "value": 2.524}, {"measurement": "Selectivity index LC50/MIC M. fortuitum", "setting": "Caco-2 cells", "value": 2.524}, {"measurement": "Selectivity index LC50/MIC M. smegmatis", "setting": "Caco-2 cells", "value": 2.524}, {"measurement": "Selectivity index LC50/MIC M. tb H37RV", "setting": "Caco-2 cells", "value": 2.524}, {"measurement": "MIC", "setting": "M. bovis (ATCC 27290)", "value": 63, "unit": "µg/mL"}, {"measurement": "Percentage hepatoprotective activity (cell viability)", "setting": "HepG2 liver cells", "value": "89.277±0.023", "unit": "%"}, {"measurement": "Antimycobacterial activity in words", "setting": "[1]", "value": "good activity"}, {"measurement": "Selectivity index LC50/MIC M. fortuitum", "setting": "Vero monkey kidney cells", "value": 3.127}, {"measurement": "Selectivity index LC50/MIC M. smegmatis", "setting": "Vero monkey kidney cells", "value": 3.127}, {"measurement": "Selectivity index LC50/MIC M. tb H37RV", "setting": "Vero monkey kidney cells", "value": 3.127}, {"measurement": "MIC", "setting": "[2]", "value": 63, "unit": "µg/mL"}, {"measurement": "MIC", "setting": "M. fortuitum (ATCC 6841)", "value": 63, "unit": "µg/mL"}, {"measurement": "Selectivity index LC50/MIC M. bovis", "setting": "C3A cells", "value": 3.174}, {"measurement": "Selectivity index LC50/MIC M. fortuitum", "setting": "C3A cells", "value": 3.174}, {"measurement": "Selectivity index LC50/MIC M. smegmatis", "setting": "C3A cells", "value": 3.174}, {"measurement": "Selectivity index LC50/MIC M. tb H37RV", "setting": "C3A cells", "value": 3.174}, {"measurement": "MIC", "setting": "[3]", "value": 63, "unit": "µg/mL"}]}
{"molecule": "CO[C@H]1/C=C/O[C@@]2(C)Oc3c(C)c(O)c4c(O)c(c(/C=N/N5CCN(C)CC5)c(O)c4c3C2=O)NC(=O)/C(C)=C\\C=C\\[C@H](C)[C@H](O)[C@@H](C)[C@@H](O)[C@@H](C)[C@H](OC(C)=O)[C@@H]1C", "note": "[Rif (+ve con), rifampicin, reference compound]", "values": [{"measurement": "MIC", "setting": "M. bovis (ATCC 27290)", "value": 4, "unit": "µg/mL"}, {"measurement": "Cell viability of HepG2 cells treated with the toxicant alone", "setting": "HepG2 liver cells", "value": "65.27±0.184", "unit": "%"}, {"measurement": "MIC", "setting": "M. aurum (NCTC 10437)", "value": 4, "unit": "µg/mL"}, {"measurement": "Selectivity index LC50/MIC M. aurum", "setting": "Vero monkey kidney cells", "value": 23.500}, {"measurement": "Selectivity index LC50/MIC M. bovis", "setting": "Vero monkey kidney cells", "value": 23.500}, {"measurement": "Selectivity index LC50/MIC M. fortuitum", "setting": "Vero monkey kidney cells", "value": 1.492}, {"measurement": "Selectivity index LC50/MIC M. smegmatis", "setting": "Vero monkey kidney cells", "value": 24.103}, {"measurement": "Selectivity index LC50/MIC M. tb H37RV", "setting": "Vero monkey kidney cells", "value": ">100"}, {"measurement": "MIC", "setting": "[2]", "value": 0.24, "unit": "µg/mL"}, {"measurement": "MIC", "setting": "M. fortuitum (ATCC 6841)", "value": 63, "unit": "µg/mL"}, {"measurement": "viability", "setting": "in vitro", "value": 65, "unit": "%"}, {"measurement": "MIC", "setting": "[3]", "value": 3.9, "unit": "µg/mL"}]}
{"molecule": "[H]/N=C(/N)N[C@H]1[C@H](O)[C@@H](O)[C@H](O[C@@H]2O[C@@H](C)[C@](O)(C=O)[C@H]2O[C@@H]2O[C@@H](CO)[C@H](O)[C@@H](O)[C@@H]2NC)[C@@H](N/C(N)=N\\[H])[C@@H]1O", "note": "[Strep (+ve con), streptomycin, reference compound]", "values": [{"measurement": "MIC", "setting": "M. bovis (ATCC 27290)", "value": 4, "unit": "µg/mL"}, {"measurement": "MIC", "setting": "M. aurum (NCTC 10437)", "value": 4, "unit": "µg/mL"}, {"measurement": "MIC", "setting": "[2]", "value": 0.24, "unit": "µg/mL"}, {"measurement": "MIC", "setting": "M. fortuitum (ATCC 6841)", "value": "> 1000", "unit": "µg/mL"}, {"measurement": "MIC", "setting": "[3]", "value": 3.9, "unit": "µg/mL"}]}
{"molecule": "COc1cc2oc(-c3ccc(O)cc3O)c(CC=C(C)C)c(=O)c2c(O)c1/C=C/C(C)C", "note": "[artocarpin]", "values": [{"measurement": "MIC", "setting": "Mycobacterium", "value": 3, "unit": "µg/mL"}]}
{"molecule": "O=c1c(O[C@@H]2O[C@@H](CO)[C@H](O)[C@H]2O)c(-c2ccc(O)c(O)c2)oc2cc(O)cc(O)c12", "note": "[avicularin]", "values": [{"measurement": "Hepatoprotective activity in words", "setting": "HepG2 cells", "value": "significant hepatoprotective activity"}]}
{"molecule": "O=c1c(O[C@@H]2O[C@H](CO)[C@@H](O)[C@H](O)[C@H]2O)c(-c2ccc(O)c(O)c2)oc2cc(O)cc(O)c12", "note": "[hirsutrin]", "values": [{"measurement": "Hepatoprotective activity in words", "setting": "HepG2 cells", "value": "significant hepatoprotective activity"}]}
{"molecule": "O=c1c(O)c(-c2ccc(O)c(O)c2)oc2cc(O)cc(O)c12", "note": "[quercetin]", "values": [{"measurement": "Hepatoprotective activity in words", "setting": "HepG2 cells", "value": "significant hepatoprotective activity"}]}
{"molecule": "chaplashin", "values": [{"measurement": "MIC", "setting": "Mycobacterium", "value": 3, "unit": "µg/mL"}]}
